Data: PMC6058716, “Two Odorant-Binding Proteins of the Dark Black Chafer (Holotrichia parallela) Display Preferential Binding to Biologically Active Host Plant Volatiles” (Frontiers in Physiology, 2018)
Where two headings read alike, the source gives them in different places.

Experiments:
HparOBP20 = HparOBP20 (Holotrichia parallela, UniProt A0A0G2YKL4); assay: Fluorescence competitive binding assay with 1-NPN probe, recombinant HparOBP20
Description: (§1) Purification was performed via Ni ion affinity chromatography (GE Healthcare, Beijing, China), and the His-tag was removed using enterokinase for HparOBP20 or tobacco etch virus (TEV) protease for HparOBP49.
(§2) We used an F-380 fluorescence spectrophotometer (Tianjin, China) to determine the results of the perform the binding assay at room temperature (25°C). The excitation wavelength was 337 nm, and the emission spectrum was recorded between 390 and 460 nm.

HparOBP49 = HparOBP49 (Holotrichia parallela, UniProt A0A0G2YD95); assay: Fluorescence competitive binding assay with 1-NPN probe, recombinant HparOBP49
Description: as §1, §2

DBC adults [1] = assay: Field evaluation, baited traps; assay type: in vivo, Holotrichia parallela; settings: for Male DBCs caught in traps: males, 360 mg per dispenser, mean ± SE, N=3 traps; for Attractant ability in traps: result in words
Description: According to the laboratory evaluation, in addition to the main sex pheromone component, L-leucine methyl ester, (Z)-3-hexenyl acetate was considered as a candidate compound for attracting DBC adults in the field. The tested chemicals were individually dissolved with methanol to 360 mg/ml. A dispenser was constructed using oil-free cotton wool with 360 mg of the tested chemical and stored in a freezer before use. Methanol was employed as a control. The treatments were as follows: • - L-leucine methyl ester alone, 360 mg/ml, 1 ml/dispenser • - (Z)-3-hexenyl acetate alone, 360 mg/ml, 1 ml/dispenser • - methanol alone as control, 99% purity, 1 ml/dispenser All experiments were performed at the experimental station of the Shandong Peanut Research Institute, Lai Xi Wang Cheng, Qingdao, China. Traps were placed in middle of the field, and each trap was located 60 m from any other trap, so that the individual treatments were 60 m apart. To avoid cross-contamination, only one compound was tested at each sub-site at any time, and each compound was tested at only one sub-site ([Isberg et al., 2017]). Each trap was set to operate from 1 h before sunset until 1 h after sunset. Three traps (replicates) were selected for each treatment. The test period was June 1–20, 2017. As a rule, the traps were checked every day, and the individuals that were caught in all experiments were sexed.

DBC adults [2] = assay: Y-tube olfactometer behavioral response; assay type: in vivo, Holotrichia parallela; settings: 1 μg/μl, T/(T+C); for Selective response rate (%), Female / Selective response rate (%), Male: in Figure 6, letters mark significance
Description: The behavioral responses of female and male adults to the putative ligands were tested using a Y-tube olfactometer in a dark room at 27 ± 1°C. A filter paper (25 × 8 mm) with 10 μl of the test compound was placed at the end of one arm of the Y-tube, with 10 μl of methanol at the end of the other arm (control tube). The airflow was 500 ml/min. Six replicates were performed for each stimulant with 10 healthy virgin adults in the main stem of the Y-tube, and 10 min was allowed for their distribution. The response rate was calculated according to the following equations: response rate = (T+C)/SUM and selective response rate = T/(T+C), where T represents the number of beetles in the treatment tube; C indicates the number of beetles in the control tube; and SUM is the number of beetles tested.

DBC antennae = assay: Electroantennogram (EAG) responses of virgin male/female antennae; set-up: species or system Holotrichia parallela; settings: 1 μg/μl, corrected with methanol; for EAG response, males: male antennae
Description: The EAG responses of virgin male/female antennae were measured after removing the tips of the three antennal lamellae (at approximately 1 mm) and separating them from each other. The chemicals used for the EAG and behavior assays were diluted in methanol (HPLC grade) to varying concentrations (0.1, 1, and 10 μg/μl), and methanol was used as a control. A 10 μl aliquot of each concentration was applied to a filter paper (25 × 8 mm). EAG responses were recorded for 5 s, with a stimulation interval of 30 s and a flow rate of 4 ml/s for both the stimulant and purge airflow. Each chemical was tested against six antennae, and each antenna was tested with three repeated stimulations. The EAG apparatus consisted of a signal acquisition system (IDAC-4), a micromanipulator assembly (INR-5), a stimulus controller (CS-05), and a system for outputting the EAG results (Syntech Company, Holland).

[3] = displacement of 2 μM 1-NPN, 2 μM protein, Tris-HCl pH 7.4, 25°C, read-out: IC50, HparOBP20
[4] = displacement of 2 μM 1-NPN, 2 μM protein, Tris-HCl pH 7.4, 25°C, read-out: IC50, HparOBP49
[5] = Ki, HparOBP20, calculated from IC50, Ki = [IC50]/(1+[1-NPN]/K1-NPN)
[6] = calculated from IC50, Ki = [IC50]/(1+[1-NPN]/K1-NPN), read-out: Ki, HparOBP20

Sequence of HparOBP20 (A0A0G2YKL4 entry or part of it): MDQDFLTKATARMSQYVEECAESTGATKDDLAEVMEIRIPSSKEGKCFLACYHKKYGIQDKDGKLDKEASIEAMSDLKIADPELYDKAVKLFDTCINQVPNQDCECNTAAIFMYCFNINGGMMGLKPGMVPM
Sequence of HparOBP49 (A0A0G2YD95 entry or part of it): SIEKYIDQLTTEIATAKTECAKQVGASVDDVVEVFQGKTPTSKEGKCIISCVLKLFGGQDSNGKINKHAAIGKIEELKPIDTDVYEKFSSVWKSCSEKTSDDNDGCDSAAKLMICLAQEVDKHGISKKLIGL

Compound | IC50 (HparOBP20) [µM] | IC50 (HparOBP49) [µM] | IC50 (HparOBP20; [3]) [µM] | IC50 (HparOBP49; [4]) [µM] | other results
CCc1ccc(C(C)=O)cc1 [4′-Ethylacetophenone] | > 50 | > 50 |  |  | 
C=C[C@](C)(O)CCC=C(C)C [(R)-(-)-Linalool] |  |  | > 50 | > 50 | 
CC/C=C\CCO [(Z)-3-Hexen-1-ol] | 30.1 | > 50 |  |  | Ki (HparOBP20; [5]): 25.2 µM
COC(=O)c1ccccc1 [Methyl benzoate] | > 50 | > 50 |  |  | 
COC(=O)[C@@H](N)CC(C)C.Cl [L-Leucine methyl ester] |  |  | > 50 | > 50 | Male DBCs caught in traps (DBC adults [1]): 258 ± 12.860 DBCs; Selective response rate (%), Female (DBC adults [2]; females): 0.20c %; Selective response rate, males (DBC adults [2]; males): 96%; EAG response, males (DBC antennae): 5.68 mV
OCc1ccccc1 [Benzyl alcohol] | > 50 | > 50 |  |  | 
CCCCCCCCCCCCCCC [Pentadecane] |  |  | 16.5 | > 50 | Attractant ability in traps (DBC adults [1]): low attractant ability; Ki (HparOBP20; [6]): 13.8 µM; Selective response rate (%), Female (DBC adults [2]; females): 67%; Selective response rate (%), Male (DBC adults [2]; males): 59%
CCC/C=C/COC(C)=O [(E)-2-Hexenyl acetate] |  |  | 27.8 | > 50 | Ki (HparOBP20; [6]): 23.3 µM
CCC/C=C/CO [(E)-2-Hexen-1-ol] | > 50 | > 50 |  |  | 
Farnesene [Farnesene, mixture of isomers] |  |  | > 50 | > 50 | 
CCCCCCCCO [1-Octanol] |  |  | 30.2 | > 50 | Ki (HparOBP20; [6]): 25.3 µM
O=Cc1ccccc1 [Benzaldehyde] | > 50 | > 50 |  |  | 
CCCCCCO [1-Hexanol] |  |  | > 50 | > 50 | 
C=C1CC/C=C(\C)CC[C@@H]2[C@@H]1CC2(C)C [β-Caryophyllene] | > 50 | > 50 |  |  | Selective response rate (%), Female (DBC adults [2]; females): 48%
CCCCC=O [Valeraldehyde] |  |  | 31.1 | > 50 | Ki (HparOBP20; [6]): 26.1 µM
CCCCCC(=O)O [Hexanoic acid] | 47.2 | 47.6 |  |  | Ki (HparOBP20; [5]): 39.5 µM; Ki (HparOBP49): 42.2 µM

Compound | IC50 (HparOBP20) [µM] | IC50 (HparOBP49) [µM] | IC50 (HparOBP20; [3]) [µM] | IC50 (HparOBP49; [4]) [µM] | other results
CCCCCCCCC=O [Nonanal] |  |  | > 50 | > 50 | 
C=C(C)[C@H]1CC=C(C)CC1 [(R)-(+)-Limonene] |  |  | 28.7 | > 50 | Ki (HparOBP20; [6]): 24 µM
CC(C)=CCC/C(C)=C/CC/C(C)=C/CO [Farnesol, mixture of isomers, Farnesol] |  |  | > 50 | > 50 | 
CC/C=C\CCOC(C)=O [(Z)-3-Hexenyl acetate] |  |  | 22.1 | 44.7 | Male DBCs caught in traps (DBC adults [1]): 83 ± 4.933 DBCs; Ki (HparOBP20; [6]): 18.5 µM; Selective response rate, females (DBC adults [2]; females): 98%; Selective response rate (%), Male (DBC adults [2]; males): 59%; EAG response, females (DBC antennae; female antennae): 4.84 mV; EAG response, males (DBC antennae): 4.02 mV; Ki (HparOBP49; calculated from IC50, Ki = [IC50]/(1+[1-NPN]/K1-NPN), read-out: Ki, HparOBP49): 39.7 µM
CCC/C=C/C=O [(E)-2-Hexenal] | > 50 | > 50 |  |  | 
CCCCCCCCC(=O)O [Nonanoic acid] |  |  | > 50 | > 50 | 
CCCCCCCCCCCC=O [Dodecyl aldehyde] |  |  | > 50 | > 50 | 
Ocimene [Ocimene, mixture of isomers] |  |  | > 50 | > 50 | 
CC/C=C/CCO [(E)-3-Hexen-1-ol] | 30.3 | > 50 |  |  | Ki (HparOBP20; [5]): 25.4 µM
Cn1cccc1 [1-Methylpyrrole] |  |  | 26.1 | > 50 | Ki (HparOBP20; [6]): 21.9 µM
CC1=CCC2CC1C2(C)C (stereo not drawn) [α-Pinene] | 26.8 | > 50 |  |  | Ki (HparOBP20; [5]): 22.4 µM
COC(=O)c1ccccc1O [Methyl salicylate] | 28.5 | > 50 |  |  | Ki (HparOBP20; [5]): 23.8 µM
CCCCCC=O [1-Hexanal] | > 50 | > 50 |  |  | 
CCCCCCCCCCCC [Dodecane] |  |  | 48.5 | > 50 | Ki (HparOBP20; [6]): 40.6 µM
CC1=CC[C@H](C(C)C)C=C1 [α-Phellandrene] | 21.1 | > 50 |  |  | Attractant ability in traps (DBC adults [1]): low attractant ability; Ki (HparOBP20; [5]): 17.6 µM; Selective response rate (%), Female (DBC adults [2]; females): 51%; Selective response rate (%), Male (DBC adults [2]; males): 73%
CC(=O)c1ccc(C)c(C)c1 [3′,4′-Dimethylacetophenone] |  |  | > 50 | > 50 | 
